Experiments:
[1] = tested on: cellules rétiniennes épithéliales ARPE-19; assay: Cytolysis after 30 min or 5 min exposure (Example 4); format: cell-based
Method: (§1) Dans cet essai, on évalue également l'influence de la présence d'eau lourde dans les solutions sur leur cytotoxicité vis-à-vis de cellules rétiniennes épithéliales ARPE-19 fournies par ATCC, dans les mêmes conditions générales que dans l'exemple 1.
(§2) Les cellules sont exposées aux solutions 30 minutes dans une première série d'essais, et cinq minutes dans une deuxième série d'essais. Des mesures de cytolyse sont réalisées 1,5 h et 48 h après ce traitement.
(§3) Les mêmes mesures sont effectuées à titre de comparaison sur composition de Monoblue® 0,15% commercialisée par la société Arcadophta, Toulouse, France, sur une solution d'eau oxygénée 100mM et sur une solution saline d'irrigation intraoculaire (BSS).

[2] = tested on: cellules rétiniennes épithéliales ARPE-19; assay: Number of cells after exposure (Example 4); format: cell-based
Method: as §1, §2, §3

[3] = Exposition 5 min, culture 48 h après exposition
[4] = Exposition 30 min, culture 1 h30 après exposition

% Cellules cytolysées Moyenne [1, 3]: 88,3%
% Cellules cytolysées Moyenne [1, 4]: 73,63%
Nombre de cellules Moyenne [2, 3]: 129,00
Nombre de cellules Moyenne [2, 4]: 29,33
Substance: eau oxygénée [H2O2 100mM]
